Structures are written as SMILES. Values after ≈ are worked out from the molar mass of the structure shown.

The target in data set [1] is T1, Tyrosine-protein kinase JAK1 (Homo sapiens, UniProt P23458).
Data set [2] in a line: Selectivity ratio of Ki for JAK2 kinase domain to Ki for JAK1 kinase domain.
In data set [3] the target is T1, Tyrosine-protein kinase JAK1. The data set is classed as cell-based, TF-1.
Data set [4] has as its target Macrophage colony-stimulating factor 1 receptor (Homo sapiens) (UniProt P07333). Put plainly: Inhibition of CSF1R at 0.1 uM.
Data set [5] is described as follows: Apparent permeability from apical to basal side of MDCK cells. Format: ADME, cell-based, Canis lupus familiaris. As to conditions: dog.
A further data set has as its target Cytochrome P450 3A4 (Homo sapiens, UniProt P08684). Briefly: Inhibition of CYP3A4. The data set is classed as ADME.
A further data set concerns the target Cytochrome P450 2D6 (Homo sapiens, UniProt P10635). Put plainly: Inhibition of CYP2D6. Format: ADME.
Data set [6] is described as follows: Volume of distribution at steady state in Sprague-Dawley rat at 0.4 mg/kg, iv administered as bolus dose. The data set is classed as ADME, organism-based. The arrangement: dose 0.4 mg/kg, route intravenous. As to conditions: in vivo, read-out: Vdss.
In data set [7] the target is Leucine-rich repeat serine/threonine-protein kinase 2 (Homo sapiens) (UniProt Q5S007). Put plainly: Inhibition of LRRK2 at 0.1 uM.
Leucine-rich repeat serine/threonine-protein kinase 2 (Homo sapiens), sequence (Q5S007 whole entry): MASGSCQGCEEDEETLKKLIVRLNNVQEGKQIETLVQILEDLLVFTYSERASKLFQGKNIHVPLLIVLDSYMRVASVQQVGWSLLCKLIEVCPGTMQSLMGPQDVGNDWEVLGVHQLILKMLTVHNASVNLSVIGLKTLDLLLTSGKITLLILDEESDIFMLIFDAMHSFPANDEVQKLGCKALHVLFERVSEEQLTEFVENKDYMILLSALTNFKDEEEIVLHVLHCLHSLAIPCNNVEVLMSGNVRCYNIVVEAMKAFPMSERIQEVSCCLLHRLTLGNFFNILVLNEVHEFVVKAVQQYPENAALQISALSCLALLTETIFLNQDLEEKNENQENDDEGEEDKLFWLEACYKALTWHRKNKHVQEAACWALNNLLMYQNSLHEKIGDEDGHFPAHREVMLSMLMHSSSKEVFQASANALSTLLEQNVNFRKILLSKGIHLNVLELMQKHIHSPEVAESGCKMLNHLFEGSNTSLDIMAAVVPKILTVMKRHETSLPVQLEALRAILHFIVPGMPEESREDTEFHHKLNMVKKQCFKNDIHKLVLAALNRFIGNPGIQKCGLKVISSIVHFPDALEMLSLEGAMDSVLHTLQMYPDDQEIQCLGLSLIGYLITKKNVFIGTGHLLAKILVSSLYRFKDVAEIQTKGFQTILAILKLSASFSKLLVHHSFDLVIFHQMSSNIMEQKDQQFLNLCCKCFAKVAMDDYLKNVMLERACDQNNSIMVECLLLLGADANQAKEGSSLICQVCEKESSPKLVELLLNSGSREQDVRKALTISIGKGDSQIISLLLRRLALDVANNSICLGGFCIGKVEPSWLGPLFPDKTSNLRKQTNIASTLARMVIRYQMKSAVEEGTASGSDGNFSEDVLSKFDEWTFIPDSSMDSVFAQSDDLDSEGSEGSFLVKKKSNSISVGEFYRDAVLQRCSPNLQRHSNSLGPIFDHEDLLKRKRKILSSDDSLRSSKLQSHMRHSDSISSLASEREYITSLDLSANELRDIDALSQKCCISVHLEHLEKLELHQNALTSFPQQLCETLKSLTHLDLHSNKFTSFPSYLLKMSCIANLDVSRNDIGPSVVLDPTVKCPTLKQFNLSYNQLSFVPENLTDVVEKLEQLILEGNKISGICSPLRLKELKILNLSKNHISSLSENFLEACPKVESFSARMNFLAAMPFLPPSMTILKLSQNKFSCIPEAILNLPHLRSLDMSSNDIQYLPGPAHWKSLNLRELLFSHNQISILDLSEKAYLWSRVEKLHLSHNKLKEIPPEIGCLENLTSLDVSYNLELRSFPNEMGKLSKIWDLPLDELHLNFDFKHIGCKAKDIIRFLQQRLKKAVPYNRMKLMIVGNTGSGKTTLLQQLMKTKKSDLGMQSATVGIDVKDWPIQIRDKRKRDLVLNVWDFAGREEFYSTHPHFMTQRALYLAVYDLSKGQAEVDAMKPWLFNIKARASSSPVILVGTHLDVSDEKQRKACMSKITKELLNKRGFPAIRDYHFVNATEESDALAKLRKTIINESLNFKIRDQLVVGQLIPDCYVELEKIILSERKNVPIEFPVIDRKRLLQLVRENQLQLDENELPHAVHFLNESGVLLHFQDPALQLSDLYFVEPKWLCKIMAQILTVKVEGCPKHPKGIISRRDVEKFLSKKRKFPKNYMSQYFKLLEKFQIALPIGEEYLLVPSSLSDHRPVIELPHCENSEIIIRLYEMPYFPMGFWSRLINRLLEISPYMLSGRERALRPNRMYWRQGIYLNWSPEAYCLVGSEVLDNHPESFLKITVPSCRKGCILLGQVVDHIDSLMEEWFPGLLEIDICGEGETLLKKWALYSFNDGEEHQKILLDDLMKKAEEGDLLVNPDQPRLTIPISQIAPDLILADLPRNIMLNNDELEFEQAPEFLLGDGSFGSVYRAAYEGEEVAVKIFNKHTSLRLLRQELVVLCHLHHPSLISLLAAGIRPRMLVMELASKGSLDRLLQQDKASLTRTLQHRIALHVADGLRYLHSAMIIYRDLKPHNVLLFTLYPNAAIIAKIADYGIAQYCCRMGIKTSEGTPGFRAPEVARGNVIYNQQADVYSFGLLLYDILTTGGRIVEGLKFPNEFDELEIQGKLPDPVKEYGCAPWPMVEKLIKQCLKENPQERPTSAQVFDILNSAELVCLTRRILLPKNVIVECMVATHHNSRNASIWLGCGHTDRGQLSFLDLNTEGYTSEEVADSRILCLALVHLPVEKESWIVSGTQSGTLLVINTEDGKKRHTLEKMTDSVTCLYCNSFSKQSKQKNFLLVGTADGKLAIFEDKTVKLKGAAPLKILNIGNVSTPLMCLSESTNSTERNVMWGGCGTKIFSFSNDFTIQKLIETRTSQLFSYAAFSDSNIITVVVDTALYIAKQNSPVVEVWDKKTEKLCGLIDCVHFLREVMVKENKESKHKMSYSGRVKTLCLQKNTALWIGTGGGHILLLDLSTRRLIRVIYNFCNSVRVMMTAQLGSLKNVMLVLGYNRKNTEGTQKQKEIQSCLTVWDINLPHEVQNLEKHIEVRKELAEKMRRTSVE
Data set [8] in a line: Clearance in Sprague-Dawley rat at 0.4 mg/kg, iv administered as bolus dose. The data set is classed as ADME, organism-based. The arrangement: dose 0.4 mg/kg, route intravenous. The conditions noted are these: in vivo.
Data set [9] can be described thus: Half life in Sprague-Dawley rat at 0.4 mg/kg, iv administered as bolus dose. Format: ADME, organism-based. Details: dose 0.4 mg/kg, route intravenous. The conditions noted are these: in vivo.
Data set [10] in a line: Oral bioavailability in Sprague-Dawley rat at 2 mg/kg administered as suspension. Format: ADME, organism-based. As to conditions: in vivo.
The nature of data set [11]: AUC in Sprague-Dawley rat at 2 mg/kg, po administered as suspension. The data set is classed as ADME, organism-based. Details: dose 2 mg/kg, route oral. The conditions noted are these: plasma.
The target of the next data set is T2, Cytochrome P450 1A2 (Homo sapiens, UniProt P05177).
T2 sequence (P05177 whole entry): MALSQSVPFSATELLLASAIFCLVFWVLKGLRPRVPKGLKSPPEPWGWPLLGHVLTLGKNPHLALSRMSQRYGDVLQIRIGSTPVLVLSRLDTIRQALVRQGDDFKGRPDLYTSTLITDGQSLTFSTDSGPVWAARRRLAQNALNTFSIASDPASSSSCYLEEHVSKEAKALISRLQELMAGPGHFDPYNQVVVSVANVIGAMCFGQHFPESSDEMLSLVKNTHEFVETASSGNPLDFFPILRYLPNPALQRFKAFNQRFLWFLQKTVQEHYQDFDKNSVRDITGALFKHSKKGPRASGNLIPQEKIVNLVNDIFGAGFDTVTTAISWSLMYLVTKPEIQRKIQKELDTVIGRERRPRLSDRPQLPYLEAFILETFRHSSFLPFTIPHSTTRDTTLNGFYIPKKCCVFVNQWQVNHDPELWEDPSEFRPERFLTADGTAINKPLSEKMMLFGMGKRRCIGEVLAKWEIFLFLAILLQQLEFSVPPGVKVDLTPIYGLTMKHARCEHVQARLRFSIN
Briefly: Inhibition of CYP1A2. Format: ADME.

Another data set has as its target Cytochrome P450 2C19 (Homo sapiens, UniProt P33261). Briefly: Inhibition of CYP2C19. The data set is classed as ADME.
Another data set deals with Cytochrome P450 2C9 (Homo sapiens, UniProt P11712). Briefly: Inhibition of CYP2C9. Format: ADME.
A short description of data set [12]: Aqueous solubility of the compound. The conditions noted are these: buffer. The data set is classed as physicochemical.

T1 sequence (P23458 whole entry, the tested form may be a part): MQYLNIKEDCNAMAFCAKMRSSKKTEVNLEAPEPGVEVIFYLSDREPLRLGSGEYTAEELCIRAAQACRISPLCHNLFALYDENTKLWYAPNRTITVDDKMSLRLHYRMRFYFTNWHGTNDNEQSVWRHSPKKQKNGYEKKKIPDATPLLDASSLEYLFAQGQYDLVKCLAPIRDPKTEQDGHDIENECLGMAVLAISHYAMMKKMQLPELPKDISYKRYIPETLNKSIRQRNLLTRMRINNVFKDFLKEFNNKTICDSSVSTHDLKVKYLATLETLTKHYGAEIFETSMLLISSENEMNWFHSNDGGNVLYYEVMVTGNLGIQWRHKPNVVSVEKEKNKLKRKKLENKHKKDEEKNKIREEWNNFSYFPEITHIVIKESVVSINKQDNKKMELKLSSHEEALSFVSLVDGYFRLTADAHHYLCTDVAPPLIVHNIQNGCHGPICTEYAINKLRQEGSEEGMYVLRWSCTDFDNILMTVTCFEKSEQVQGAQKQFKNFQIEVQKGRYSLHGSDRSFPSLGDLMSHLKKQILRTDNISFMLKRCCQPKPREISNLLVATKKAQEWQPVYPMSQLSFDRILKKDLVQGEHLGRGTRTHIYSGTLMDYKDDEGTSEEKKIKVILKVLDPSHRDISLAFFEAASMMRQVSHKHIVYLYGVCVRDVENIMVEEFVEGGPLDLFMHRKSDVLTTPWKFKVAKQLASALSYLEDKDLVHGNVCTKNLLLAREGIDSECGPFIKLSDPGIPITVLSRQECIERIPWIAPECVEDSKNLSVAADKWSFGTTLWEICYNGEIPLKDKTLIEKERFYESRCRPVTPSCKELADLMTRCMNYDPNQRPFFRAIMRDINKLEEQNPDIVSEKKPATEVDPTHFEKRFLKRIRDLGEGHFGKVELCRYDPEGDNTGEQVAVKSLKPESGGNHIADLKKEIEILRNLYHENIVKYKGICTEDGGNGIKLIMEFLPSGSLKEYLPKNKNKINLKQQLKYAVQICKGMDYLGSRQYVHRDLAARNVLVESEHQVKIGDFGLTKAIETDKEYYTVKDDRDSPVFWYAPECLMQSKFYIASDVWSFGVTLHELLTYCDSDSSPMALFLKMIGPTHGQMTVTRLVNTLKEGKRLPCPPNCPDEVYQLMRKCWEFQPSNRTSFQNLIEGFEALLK
Cytochrome P450 2C19, sequence (P33261 whole entry): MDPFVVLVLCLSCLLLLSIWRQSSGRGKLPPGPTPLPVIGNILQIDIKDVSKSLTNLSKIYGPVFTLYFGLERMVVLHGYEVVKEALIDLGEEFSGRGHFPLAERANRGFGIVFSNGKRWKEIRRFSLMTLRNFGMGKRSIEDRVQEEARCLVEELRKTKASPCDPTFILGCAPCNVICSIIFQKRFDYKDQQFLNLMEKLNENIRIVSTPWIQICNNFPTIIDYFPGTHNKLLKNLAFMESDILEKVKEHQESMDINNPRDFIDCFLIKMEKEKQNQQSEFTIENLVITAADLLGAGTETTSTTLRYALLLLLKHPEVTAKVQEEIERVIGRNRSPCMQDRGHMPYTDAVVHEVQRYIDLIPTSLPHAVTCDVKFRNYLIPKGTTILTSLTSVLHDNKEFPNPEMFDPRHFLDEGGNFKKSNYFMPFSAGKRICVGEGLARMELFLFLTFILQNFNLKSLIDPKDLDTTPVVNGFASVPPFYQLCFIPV
Cytochrome P450 2D6, sequence (P10635 whole entry): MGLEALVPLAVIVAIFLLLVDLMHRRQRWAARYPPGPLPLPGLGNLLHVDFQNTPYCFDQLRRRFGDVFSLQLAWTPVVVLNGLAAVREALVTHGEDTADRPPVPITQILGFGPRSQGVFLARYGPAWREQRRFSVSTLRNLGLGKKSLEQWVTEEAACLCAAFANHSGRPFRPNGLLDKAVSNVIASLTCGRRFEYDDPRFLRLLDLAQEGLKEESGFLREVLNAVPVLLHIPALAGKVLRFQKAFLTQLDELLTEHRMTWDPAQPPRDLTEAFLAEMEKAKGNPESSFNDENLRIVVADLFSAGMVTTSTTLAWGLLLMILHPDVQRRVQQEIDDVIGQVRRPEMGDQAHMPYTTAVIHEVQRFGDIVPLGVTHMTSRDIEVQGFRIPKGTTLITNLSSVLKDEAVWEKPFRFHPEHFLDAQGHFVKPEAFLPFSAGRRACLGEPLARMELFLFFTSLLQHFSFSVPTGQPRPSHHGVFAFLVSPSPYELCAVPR

On to `N#CCCN1CCC(n2c(CCC3CCCO3)nc3cnc4[nH]ccc4c32)CC1` (racemic), for which the Ki in data set [1] is 0.0087 µM. Moreover, the Ratio Ki in data set [2] amounted to 5.4. In addition, the EC50 in [3] was 0.57 µM.
On to `CS(=O)(=O)NCc1nc2cnc3[nH]ccc3c2n1C1CC2CCC1O2` (racemic), for which the Ki in [1] is 0.028 µM. Further, the Ratio Ki in [2] turned out to be 8. In [3], this compound gave an EC50 of 4.2 µM.
For the compound `CCCc1nc2cnc3[nH]ccc3c2n1C1CCN(CCC#N)CC1`, the inhibitory constant (Ki) in data set [1] was determined as 0.0046 µM. Also, the Ratio Ki in [2] amounted to 2.1. The compound further had an EC50 in data set [3] of 0.275 µM.
In turn, `CC(=O)NCCc1nc2cnc3[nH]ccc3c2n1C1CCN(CCC#N)CC1` registered a Ki in data set [1] of 0.0037 µM. Also, the Ratio Ki in [2] turned out to be 5.6. The compound further gave an EC50 in data set [3] greater than 6.5 µM.
In the case of `CC(=O)NCCc1nc2cnc3[nH]ccc3c2n1C1CCCCC1`, the EC50 in data set [3] came out at 0.21 µM.
On to `CC(=O)NCc1nc2cnc3[nH]ccc3c2n1C1CC2CCC1C2` (racemic), for which the affinity in [1] corresponds to a Ki of 0.003 µM. Besides, the Ratio Ki in data set [2] came to 8.4. Moreover, the EC50 in data set [3] stood at 0.16 µM.
The matching figures for `CC(C)CS(=O)(=O)NCc1nc2cnc3[nH]ccc3c2n1C1CCN(CCC#N)CC1`: 0.0054 µM, 11 and 1.2 µM.
For the compound `N#CCCN1CCC(n2c(CC3CCOCC3)nc3cnc4[nH]ccc4c32)CC1`, in data set [1], the affinity corresponds to a Ki of 0.043 µM. Besides, the Ratio Ki in data set [2] was 4.8. In addition, the EC50 in data set [3] was 2.6 µM.
Turning to `N#CCCN1CCC(n2c(C3CC3)nc3cnc4[nH]ccc4c32)CC1`, the Ratio Ki in [2] was found to be 1.8. Also, the response in data set [3] was half-maximal at 0.16 µM (EC50).
For `CC(=O)NCc1nc2cnc3[nH]ccc3c2n1C1CCN(CCC#N)CC1` the same measures were 5.4 and greater than 3.8 µM.
Regarding `CC(=O)NCc1nc2cnc3[nH]ccc3c2n1C1CCN(CC(F)(F)F)CC1`, the Ki in [1] was determined as 0.012 µM. Besides, the Ratio Ki in data set [2] was determined as 6.7. A half-maximal effect in data set [3] (EC50) was put at 1.5 µM.
`CS(=O)(=O)NCCc1nc2cnc3[nH]ccc3c2n1C1CCN(CCC#N)CC1` yielded a Ki in [1] of 0.0017 µM. Further, the Ratio Ki in [2] is 7. The same compound showed an EC50 in [3] greater than 6 µM.
For `CCOC(=O)NCc1nc2cnc3[nH]ccc3c2n1C1CCN(CCC#N)CC1` the same measures were 0.0084 µM, 3.6 and 0.625 µM.
For `N#CCCN1CCC(n2c(CC3CCCC3)nc3cnc4[nH]ccc4c32)CC1` the same measures were 0.016 µM, 4.5 and 2 µM.
The matching figures for `N#CCCN1CCC(n2c(C3CCC3)nc3cnc4[nH]ccc4c32)CC1`: 0.0043 µM, 3.6 and 0.43 µM.
In the case of `CS(=O)(=O)NCc1nc2cnc3[nH]ccc3c2n1[C@@H]1C[C@H]2CC[C@@H]1C2`, the inhibition in data set [4] and in [7] was greater than 50% throughout. Moreover, the Papp A→B in [5] is 8.2 ×10⁻⁶ cm/s. Moreover, the IC50 at Cytochrome P450 3A4, on Cytochrome P450 2D6, on Cytochrome P450 1A2, at Cytochrome P450 2C19 and at Cytochrome P450 2C9 was greater than 10 µM each time. In data set [6], the Vd came to 4 L/kg. The clearance in data set [8] came out at 33 mL/min/kg. Further, the half-life in data set [9] was 1.5 h. Further, the bioavailability in data set [10] turned out to be 79%. Besides, the AUC in data set [11] was 2.2 µM·h. In data set [12], the solubility came out at 71 µM (≈ 25.5 µg/mL).
In data set [1], `CS(=O)(=O)NCCc1nc2cnc3[nH]ccc3c2n1C1CC2CCC1C2` (racemic) showed a Ki of 0.0006 µM. The Ratio Ki in [2] turned out to be 10. The compound further returned an EC50 in data set [3] of 0.05 µM.
For `N#CCCN1CCC(n2c(CC3CCCO3)nc3cnc4[nH]ccc4c32)CC1` (racemic) the same measures were 0.024 µM, 1.5 and 1.3 µM.
Compound `Cn1ccc(CCc2nc3cnc4[nH]ccc4c3n2C2CCN(CCC#N)CC2)n1` returned a Ki in data set [1] of 0.013 µM. Moreover, in [2], the Ratio Ki stood at 7.6. Besides, the midpoint of the response in data set [3], the EC50, lay at 2.6 µM.
For `N#CCCN1CCC(n2c(CCn3cccn3)nc3cnc4[nH]ccc4c32)CC1` the same measures were 0.014 µM, 2.6 and 1.8 µM.
In data set [1], `CC(C)c1nc2cnc3[nH]ccc3c2n1C1CCN(CCC#N)CC1` displayed a Ki of 0.0091 µM. Further, in data set [2], the Ratio Ki was 4.2. For the same compound, the EC50 in data set [3] came to 0.41 µM.

The values are drawn from ChEMBL document CHEMBL2203155, “Structure-based discovery of C-2 substituted imidazo-pyrrolopyridine JAK1 inhibitors with improved selectivity over JAK2” (Bioorg Med Chem Lett, 2012).
